From the NIST ThermoML archive (doi:10.1021/je0301747)
± gives the expanded uncertainty stated by the source.

What was measured:
[1] = molar enthalpy of vaporization or sublimation; conditions: 298.15 K; Liquid
[2] = Liquid

Row | Structure (SMILES) | molar enthalpy [1] | vapor or sublimation pressure ([2]; 298.15 K) | vapor or sublimation pressure ([2]; 328.15 K) | vapor or sublimation pressure ([2]; 358.15 K) | vapor or sublimation pressure ([2]; 388.15 K) | vapor or sublimation pressure ([2]; 418.15 K) | vapor or sublimation pressure ([2]; 448.15 K) | vapor or sublimation pressure ([2]; 478.15 K) | vapor or sublimation pressure ([2]; 508.15 K) | vapor or sublimation pressure ([2]; 538.15 K) | vapor or sublimation pressure ([2]; 568.15 K) | vapor or sublimation pressure ([2]; 575.15 K)
1 | CCCCCCCCCCCCCCCCCCCCCC [docosane] | 26.7 ± 1.89 kcal/mol | 2.148e-07 ± 4e-07 kPa | 1.218e-05 ± 5.5e-06 kPa | 0.0002988 ± 8.8e-05 kPa | 0.003922 ± 0.00095 kPa | 0.032 ± 0.007 kPa | 0.1809 ± 0.038 kPa | 0.7674 ± 0.16 kPa | 2.593 ± 0.53 kPa | 7.298 ± 1.5 kPa | 17.71 ± 3.6 kPa | 21.39 ± 4.3 kPa
2 | CCCCCCCCCCCCCCCCCCCCC [heneicosane] | 25.5 ± 1.74 kcal/mol | 6.69e-07 kPa | 3.15e-05 ± 2.3e-05 kPa | 0.0006673 ± 0.00029 kPa | 0.007785 ± 0.0025 kPa | 0.05774 ± 0.015 kPa | 0.3019 ± 0.071 kPa | 1.201 ± 0.27 kPa | 3.849 ± 0.83 kPa | 10.36 ± 2.2 kPa | 24.22 ± 5 kPa | 29.02 ± 6 kPa
3 | CCCCCCCCCCCCCCCCCCCCCCCCCCCCC [nonacosane] | 35.2 ± 3.59 kcal/mol | 1.018e-10 kPa | 2.044e-08 ± 2.3e-08 kPa | 1.365e-06 ± 6.8e-07 kPa | 3.99e-05 ± 1.1e-05 kPa | 0.0006219 ± 0.00012 kPa | 0.005963 ± 0.00088 kPa | 0.0391 ± 0.005 kPa | 0.1897 ± 0.022 kPa | 0.7225 ± 0.08 kPa | 2.264 ± 0.24 kPa | 2.884 ± 0.3 kPa
4 | CCCCCCCCCCCCCCCCCCCCCCCCCCCCCC [triacontane] | 36.4 ± 3.82 kcal/mol | 3.317e-11 kPa | 8.03e-09 ± 1e-08 kPa | 6.217e-07 ± 3.6e-07 kPa | 2.045e-05 ± 7.1e-06 kPa | 0.0003508 ± 9.2e-05 kPa | 0.003636 ± 0.00084 kPa | 0.02543 ± 0.0055 kPa | 0.1301 ± 0.027 kPa | 0.5185 ± 0.11 kPa | 1.687 ± 0.34 kPa | 2.167 ± 0.44 kPa

Other lines, results leading:

Row | molar enthalpy [1] | vapor or sublimation pressure ([2]; 298.15 K) | vapor or sublimation pressure ([2]; 328.15 K) | vapor or sublimation pressure ([2]; 358.15 K) | vapor or sublimation pressure ([2]; 388.15 K) | vapor or sublimation pressure ([2]; 418.15 K) | vapor or sublimation pressure ([2]; 448.15 K) | vapor or sublimation pressure ([2]; 478.15 K) | vapor or sublimation pressure ([2]; 508.15 K) | vapor or sublimation pressure ([2]; 538.15 K) | vapor or sublimation pressure ([2]; 568.15 K) | vapor or sublimation pressure ([2]; 575.15 K) | Structure (SMILES)
5 | 32.4 ± 2.29 kcal/mol | 1.127e-09 kPa | 1.502e-07 ± 1.2e-07 kPa | 7.253e-06 ± 2.8e-06 kPa | 0.0001636 ± 3.8e-05 kPa | 0.002067 ± 0.00034 kPa | 0.01669 ± 0.0023 kPa | 0.09492 ± 0.012 kPa | 0.4089 ± 0.046 kPa | 1.409 ± 0.15 kPa | 4.056 ± 0.43 kPa | 5.076 ± 0.53 kPa | CCCCCCCCCCCCCCCCCCCCCCCCCCC [heptacosane]
6 | 31.5 ± 2.22 kcal/mol | 2.809e-09 kPa | 3.247e-07 ± 2.4e-07 kPa | 1.401e-05 ± 5.6e-06 kPa | 0.0002888 ± 8.1e-05 kPa | 0.003393 ± 0.0008 kPa | 0.02583 ± 0.0056 kPa | 0.14 ± 0.029 kPa | 0.5797 ± 0.12 kPa | 1.934 ± 0.4 kPa | 5.417 ± 1.1 kPa | 6.742 ± 1.4 kPa | CCCCCCCCCCCCCCCCCCCCCCCCCC [hexacosane]
7 | 33.9 ± 3.35 kcal/mol | 3.173e-10 kPa | 5.263e-08 ± 5.1e-08 kPa | 3.022e-06 ± 1.4e-06 kPa | 7.829e-05 ± 2.4e-05 kPa | 0.001107 ± 0.00027 kPa | 0.009795 ± 0.0022 kPa | 0.06012 ± 0.013 kPa | 0.276 ± 0.057 kPa | 1.004 ± 0.21 kPa | 3.025 ± 0.62 kPa | 3.823 ± 0.77 kPa | CCCCCCCCCCCCCCCCCCCCCCCCCCCC [octacosane]
8 | 30.3 ± 2.03 kcal/mol | 8.145e-09 kPa | 7.894e-07 ± 5.2e-07 kPa | 2.963e-05 ± 1.1e-05 kPa | 0.0005462 ± 0.00015 kPa | 0.005863 ± 0.0014 kPa | 0.04146 ± 0.009 kPa | 0.2114 ± 0.044 kPa | 0.8322 ± 0.17 kPa | 2.661 ± 0.54 kPa | 7.192 ± 1.5 kPa | 8.882 ± 1.8 kPa | CCCCCCCCCCCCCCCCCCCCCCCCC [pentacosane]
9 | 29.1 ± 1.96 kcal/mol | 2.373e-08 kPa | 1.931e-06 ± 1.1e-06 kPa | 6.308e-05 ± 2.1e-05 kPa | 0.001041 ± 0.00027 kPa | 0.01022 ± 0.0023 kPa | 0.06716 ± 0.014 kPa | 0.3225 ± 0.067 kPa | 1.208 ± 0.25 kPa | 3.705 ± 0.75 kPa | 9.668 ± 2 kPa | 11.85 ± 2.4 kPa | CCCCCCCCCCCCCCCCCCCCCCCC [tetracosane]
10 | 28 ± 1.96 kcal/mol | 7.059e-08 kPa | 4.801e-06 ± 2.5e-06 kPa | 0.0001361 ± 4.3e-05 kPa | 0.002006 ± 0.0005 kPa | 0.01797 ± 0.004 kPa | 0.1096 ± 0.023 kPa | 0.4952 ± 0.1 kPa | 1.763 ± 0.36 kPa | 5.183 ± 1.1 kPa | 13.05 ± 2.6 kPa | 15.88 ± 3.2 kPa | CCCCCCCCCCCCCCCCCCCCCCC [tricosane]
